The term Km denotes the substrate concentration at which the rate is half of its maximum.

The experiment deals with T1, Asuc_1999 (Actinobacillus succinogenes, UniProt A6VQU8).
T1 construct: untagged gene in pBAD30 derivative pMB64, expressed in E. coli IMW529 (deficient in anaerobic fumarate transport); 555 amino acids; cell suspension uptake
The experiment can be described thus: […] uptake, filtration assay, E. coli cell suspension. The format is cell-based. The note with it: anaerobic; phosphate buffer pH 7, 1 mmol/L MgSO4; 37°C; 1 min uptake; 20 mmol/L lactose preincubation; labelled compound.

Take `O=C(O)/C=C/C(=O)O` [fumarate]: the Km was 452 µM.

With `O=C(O)CCC(=O)O` [succinate], the Km amounted to 364 µM.
